This passage reports pest or weed control and chromatographic logP results from patent US8791143B2, “Anthranilic diamide derivatives having cyclic side-chains” (priority 2010, dated 2014).

Series [1] concerns caterpillars of the armyworm (Spodoptera frugiperda). The series is described as follows: Spodoptera frugiperda test (SPODFR spray treatment). As to conditions: Spodoptera frugiperda, 168 h, read-out: activity in % (caterpillars killed). It is filed as in vivo.
Series [2] in a line: log P by HPLC on reversed-phase columns (EEC Directive 79/831 Annex V.A8). The format is physicochemical.
In series [3] the test system is larvae of the mustard beetle (Phaedon cochleariae). The series is described as follows: Phaedon test (PHAECO spray treatment). As to conditions: Phaedon cochleariae, 168 h, read-out: activity in % (beetle larvae killed).
Where [4] appears, read: application rate 100 g/ha, after 7 days.
Where [5] appears, read: reversed-phase C18 HPLC column, pH 2.7, HPLC reversed-phase C18, acidic range pH 2.7 (HCOOH), only or first value of the cell, read-out: log P.

Where two headings read alike, the source gives them in different places.

As to `Cc1cc(Cl)cc(C(=O)NCc2ccccc2OC(F)F)c1NC(=O)c1cc(Cn2nnc(C(F)F)n2)nn1-c1ncccc1Cl` [Example 175], the pest or weed control at 100 g/ha in series [1] (setting [4]) and in series [3] was 100% in each case. In addition, in series [2] (setting [5]), the chromatographic logP was 3.47.
With `Cc1cc(C#N)cc(C(=O)NCc2cccc(OC(F)(F)F)c2)c1NC(=O)c1cc(Cn2nnc(C(F)(F)F)n2)nn1-c1c(Cl)cccc1Cl` [Example 214], the pest or weed control at 100 g/ha in series [1] (setting [4]) and in series [3] was 100% in each case. Moreover, the chromatographic logP in series [2] (setting [5]) is 4.23.
On to `O=C(NC1COC1)c1cc(Cl)cc(Cl)c1NC(=O)c1cc(Cn2nnc(C(F)(F)F)n2)nn1-c1ncccc1Cl` [Example 5], for which the pest or weed control at 100 g/ha in series [1] and in series [3] was 100% throughout. In series [2] (pH 2.7, log P), the chromatographic logP stood at 2.79.
As to `Cc1cc(C#N)cc(C(=O)NCc2cccc(OC(F)(F)F)c2)c1NC(=O)c1cc(Cn2nnc(C(F)F)n2)nn1-c1ncccc1Cl` [Example 163], the pest or weed control at 100 g/ha in series [1] (setting [4]) and in series [3] was 100% each time. Further, in series [2] (setting [5]), the chromatographic logP came out at 3.42.
In the case of `Cc1cc(C#N)cc(C(=O)NCc2ccc(OC(F)F)cc2)c1NC(=O)c1cc(Cn2nnc(C(F)(F)F)n2)nn1-c1c(Cl)cccc1Cl` [Example 216], the pest or weed control at 100 g/ha in series [1] (setting [4]) and in series [3] was 100% each time. In addition, the chromatographic logP in series [2] (setting [5]) turned out to be 4.1.
With `Cc1cc(Cl)cc(C(=O)NCc2ccc(Cl)nc2)c1NC(=O)c1cc(Cn2nnc(C(F)(F)F)n2)nn1-c1ncccc1Cl` [Example 235], the pest or weed control at 100 g/ha in series [1] and in series [3] was 100% in each case. In series [2] (pH 2.7, log P), this molecule came in with a chromatographic logP of 3.42.
With `COc1cccc(CNC(=O)c2cc(Cl)cc(C)c2NC(=O)c2cc(Cn3nnc(C(F)(F)F)n3)nn2-c2ncccc2Cl)c1` [Example 101], the pest or weed control at 100 g/ha in series [1] and in series [3] was 100% each time. Moreover, the chromatographic logP in series [2] (pH 2.7, log P) turned out to be 3.81.
`Cc1cc(Cl)cc(C(=O)NCc2ccc(C(C)(C)C)cc2)c1NC(=O)c1cc(Cn2nnc(C(F)(F)F)n2)nn1-c1ncccc1Cl` [Example 91]: the pest or weed control at 100 g/ha in series [1] (setting [4]) and in series [3] was 100% each time. Moreover, the chromatographic logP in series [2] (setting [5]) turned out to be 4.85.
Regarding `Cc1cc(Cl)cc(C(=O)NCc2ccccc2)c1NC(=O)c1cc(Cn2nc(C(F)(F)F)c(C(F)(F)F)n2)nn1-c1ncccc1Cl` [Example 134], the pest or weed control at 100 g/ha in series [1] (setting [4]) and in series [3] was 100% throughout. For the same molecule, the chromatographic logP in series [2] (setting [5]) turned out to be 4.52.
In the case of `Cc1cc(Cl)cc(C(=O)NC(C)c2cccc(Cl)c2)c1NC(=O)c1cc(Cn2nnc(C(F)(F)F)n2)nn1-c1ncccc1Cl` (stereo not drawn) [Example 110], the pest or weed control at 100 g/ha in series [1] and in series [3] was 100% each time. Further, in series [2] (pH 2.7, log P), the chromatographic logP was found to be 4.31.
As to `Cc1cc(C#N)cc(C(=O)NCc2ccc(S(F)(F)(F)(F)F)cc2)c1NC(=O)c1cc(Cn2nnc(C(F)(F)F)n2)nn1-c1ncccc1Cl` [Example 64], the pest or weed control at 100 g/ha in series [1] (setting [4]) and in series [3] was 100% in each case. Moreover, in series [2] (setting [5]), the chromatographic logP is 4.01.
With `Cc1cc(Cl)cc(C(=O)NCc2cccc(-c3ccccc3)n2)c1NC(=O)c1cc(Cn2nnc(C(F)(F)F)n2)nn1-c1ncccc1Cl` [Example 233], the pest or weed control at 100 g/ha in series [1] (setting [4]) and in series [3] was 100% throughout. Also, the chromatographic logP in series [2] (setting [5]) is 4.27.
`Cc1cc(Cl)cc(C(=O)NC2COC2)c1NC(=O)c1cc(Cn2nc(C(F)(F)F)nc2C(F)(F)F)nn1-c1ncccc1Cl` [Example 8]: the pest or weed control at 100 g/ha in series [1] and in series [3] was 100% throughout. In addition, in series [2] (pH 2.7, log P), the chromatographic logP stood at 3.24.
On to `Cc1cc(Cl)cc(C(=O)NC(C)c2ccc(OC(F)(F)F)cc2)c1NC(=O)c1cc(Cn2nnc(C(F)(F)F)n2)nn1-c1ncccc1Cl` (stereo not drawn) [Example 117], for which the pest or weed control at 100 g/ha in series [1] (setting [4]) and in series [3] was 100% each time. For the same molecule, in series [2] (setting [5]), the chromatographic logP is 4.52.
In the case of `Cc1cc(Cl)cc(C(=O)NC(C)c2ccc(Cl)cc2Cl)c1NC(=O)c1cc(Cn2nnc(C(F)(F)F)n2)nn1-c1ncccc1Cl` (stereo not drawn) [Example 141], the pest or weed control at 100 g/ha in series [1] (setting [4]) and in series [3] was 100% each time. The chromatographic logP in series [2] (setting [5]) was found to be 4.67.
In the case of `O=C(NCc1cccc(Cl)c1)c1cc(Cl)cc(F)c1NC(=O)c1cc(Cn2nnc(C(F)(F)F)n2)nn1-c1ncccc1Cl` [Example 207], the pest or weed control at 100 g/ha in series [1] (setting [4]) and in series [3] was 100% each time. Besides, the chromatographic logP in series [2] (setting [5]) is 3.89.
Turning to `Cc1cc(C#N)cc(C(=O)NC2CSC2)c1NC(=O)c1cc(Cn2nnc(C(F)(F)C(F)(F)F)n2)nn1-c1ncccc1Cl` [Example 11], the pest or weed control at 100 g/ha in series [1] and in series [3] was 100% each time. Besides, in series [2] (pH 2.7, log P), the chromatographic logP is 3.43.
As to `Cc1cc(C#N)cc(C(=O)NCc2ccc3c(c2)OCO3)c1NC(=O)c1cc(Cn2nnc(C(F)(F)F)n2)nn1-c1ccccc1Cl` [Example 182], the pest or weed control at 100 g/ha was 83% in series [1] (setting [4]) and 100% in series [3]. In addition, the chromatographic logP in series [2] (setting [5]) amounted to 3.64.
With `Cc1cc(Cl)cc(C(=O)N[C@H](C)c2ccccc2)c1NC(=O)c1cc(Cn2nnc(C(F)(F)F)n2)nn1-c1ncccc1Cl` [Example 85], the pest or weed control at 100 g/ha in series [1] and in series [3] was 100% each time. Also, the chromatographic logP in series [2] (pH 2.7, log P) turned out to be 3.92.
As for `Cc1cc(F)cc(C(=O)NCc2ccc(OC(F)F)cc2)c1NC(=O)c1cc(Cn2nnc(C(F)(F)F)n2)nn1-c1ncccc1Cl` [Example 170], the pest or weed control at 100 g/ha in series [1] (setting [4]) and in series [3] was 100% throughout. The chromatographic logP in series [2] (setting [5]) turned out to be 3.55.
In the case of `Cc1cc(Cl)cc(C(=O)NCc2cccc(Cl)c2)c1NC(=O)c1cc(Cn2nnc(C(F)(F)F)n2)nn1-c1ncccc1Cl` [Example 116], the pest or weed control at 100 g/ha in series [1] and in series [3] was 100% each time. The chromatographic logP in series [2] (pH 2.7, log P) was determined as 4.1.
For the molecule `Cc1cc(Cl)cc(C(=O)NC(C)c2ccc(C(C)(C)C)cc2)c1NC(=O)c1cc(Cn2nnc(C(F)(F)F)n2)nn1-c1ncccc1Cl` (stereo not drawn) [Example 115], the pest or weed control at 100 g/ha in series [1] (setting [4]) and in series [3] was 100% throughout. Besides, the chromatographic logP in series [2] (setting [5]) was found to be 5.06.
Take `Cc1cc(F)cc(C(=O)NCc2ccc(OC(F)(F)F)cc2)c1NC(=O)c1cc(Cn2nnc(C(F)(F)F)n2)nn1-c1ncccc1Cl` [Example 155]: the pest or weed control at 100 g/ha in series [1] (setting [4]) and in series [3] was 100% in each case. In addition, the chromatographic logP in series [2] (setting [5]) was found to be 3.92.
On to `Cc1cc(C#N)cc(C(=O)NCc2cccc(OC(F)(F)F)c2)c1NC(=O)c1cc(Cn2nnc(C(F)(F)F)n2)nn1-c1ccccc1Cl` [Example 213], for which the pest or weed control at 100 g/ha in series [1] (setting [4]) and in series [3] was 100% in each case. In series [2] (setting [5]), the chromatographic logP stood at 4.18.
Take `O=C(NCc1cccc(Cl)c1)c1cc(Br)cc(Cl)c1NC(=O)c1cc(Cn2nnc(C(F)(F)F)n2)nn1-c1ncccc1Cl` [Example 204]: the pest or weed control at 100 g/ha in series [1] and in series [3] was 100% in each case. Moreover, in series [2] (pH 2.7, log P), the chromatographic logP is 4.09.
Regarding `Cc1cc(Cl)cc(C(=O)NC(C)c2ccc(Cl)cc2F)c1NC(=O)c1cc(Cn2nnc(C(F)(F)F)n2)nn1-c1ncccc1Cl` (stereo not drawn) [Example 125], the pest or weed control at 100 g/ha in series [1] (setting [4]) and in series [3] was 100% in each case. Further, the chromatographic logP in series [2] (setting [5]) is 4.42.
As to `COc1ccc(CNC(=O)c2cc(Cl)cc(C)c2NC(=O)c2cc(Cn3nnc(C(F)(F)F)n3)nn2-c2ncccc2Cl)cc1` [Example 102], the pest or weed control at 100 g/ha in series [1] and in series [3] was 100% each time. In series [2] (pH 2.7, log P), this molecule returned a chromatographic logP of 3.76.
Consider `Cc1cc(C#N)cc(C(=O)NCc2ccc(OC(F)(F)F)cc2)c1NC(=O)c1cc(Cn2nnc(C(F)(F)F)n2)nn1-c1ccccc1Cl` [Example 192], for which the pest or weed control at 100 g/ha in series [1] (setting [4]) and in series [3] was 100% in each case. In series [2] (setting [5]), the chromatographic logP was determined as 3.98.
Consider `O=C(NCc1cccc(OC(F)(F)F)c1)c1cc(Cl)cc(F)c1NC(=O)c1cc(Cn2nnc(C(F)(F)F)n2)nn1-c1ncccc1Cl` [Example 210], for which the pest or weed control at 100 g/ha in series [1] (setting [4]) and in series [3] was 100% each time. Also, in series [2] (setting [5]), the chromatographic logP came to 4.22.
In the case of `Cc1cc(Cl)cc(C(=O)NCc2ccc(C(F)(F)F)cc2)c1NC(=O)c1cc(Cn2nnc(C(F)(F)F)n2)nn1-c1ncccc1Cl` [Example 96], the pest or weed control at 100 g/ha in series [1] (setting [4]) and in series [3] was 100% each time. Also, the chromatographic logP in series [2] (setting [5]) came out at 4.21.
`Cc1cc(Cl)cc(C(=O)NCc2cccc(OC(F)F)c2)c1NC(=O)c1cc(Cn2nnc(C(F)(F)F)n2)nn1-c1ncccc1Cl` [Example 159]: the pest or weed control at 100 g/ha in series [1] (setting [4]) and in series [3] was 100% in each case. Also, the chromatographic logP in series [2] (setting [5]) was found to be 3.95.
`Cc1c(F)ccc(C(=O)NCc2ccc(OC(F)(F)F)cc2)c1NC(=O)c1cc(Cn2nnc(C(F)(F)F)n2)nn1-c1ncccc1Cl` [Example 187]: the pest or weed control at 100 g/ha in series [1] (setting [4]) and in series [3] was 100% in each case. Further, the chromatographic logP in series [2] (setting [5]) turned out to be 4.05.
Regarding `Cc1cc(C#N)cc(C(=O)NCc2cccc(OC(F)F)c2)c1NC(=O)c1cc(Cn2nnc(C(F)(F)F)n2)nn1-c1c(Cl)cccc1Cl` [Example 215], the pest or weed control at 100 g/ha in series [1] (setting [4]) and in series [3] was 100% throughout. In addition, in series [2] (setting [5]), the chromatographic logP was 3.78.
Regarding `Cc1c(F)ccc(C(=O)NCc2cccc(Cl)c2)c1NC(=O)c1cc(Cn2nnc(C(F)(F)F)n2)nn1-c1ncccc1Cl` [Example 183], the pest or weed control at 100 g/ha in series [1] and in series [3] was 100% throughout. In series [2] (pH 2.7, log P), the chromatographic logP was found to be 3.82.
